Data published in patent publication US10752587B2, “Homobispiperidinyl derivatives as liver X receptor beta agonists, compositions and their use” (Merck Sharp & Dohme Corp., priority 2015, dated 2020).
pEC50: −log10 of the molar value. Like-named read-outs stand apart in the source and are kept apart here.

Legend:
[1] = target: T1, glutathione-S-transferase (GST) tagged LXRalpha LBD (ligand binding domain) (Homo sapiens, UniProt Q13133); experiment: LanthaScreen TR-FRET Liver X Receptor Coactivator Assay, co-activator recruitment to LXRalpha LBD; assay type: biochemical
T1 construct: purchased Invitrogen pv4655
T1 sequence (Q13133 209-447 limits assumed): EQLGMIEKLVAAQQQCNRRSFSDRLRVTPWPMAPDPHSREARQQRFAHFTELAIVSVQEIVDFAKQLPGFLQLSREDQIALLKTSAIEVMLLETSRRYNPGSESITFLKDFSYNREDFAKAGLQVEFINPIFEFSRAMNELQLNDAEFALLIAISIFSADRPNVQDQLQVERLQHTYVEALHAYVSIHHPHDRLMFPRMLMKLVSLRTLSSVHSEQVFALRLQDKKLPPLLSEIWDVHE
Outline: (§1)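 TR-FRET coactivator recruitment; compound + LBD, then fluorescein-coactivator peptide/Tb-anti-GST Ab mix; RT incubation; IP and Emax vs T0901317.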

[2] = target: T2, glutathione-S-transferase (GST) tagged LXRbeta LBD (ligand binding domain) (Homo sapiens, UniProt P55055); experiment: LanthaScreen TR-FRET Liver X Receptor Coactivator Assay, co-activator recruitment to LXRbeta LBD; assay type: biochemical
T2 construct: purchased Invitrogen pv4658.pps
T2 sequence (P55055 222-460 limits assumed): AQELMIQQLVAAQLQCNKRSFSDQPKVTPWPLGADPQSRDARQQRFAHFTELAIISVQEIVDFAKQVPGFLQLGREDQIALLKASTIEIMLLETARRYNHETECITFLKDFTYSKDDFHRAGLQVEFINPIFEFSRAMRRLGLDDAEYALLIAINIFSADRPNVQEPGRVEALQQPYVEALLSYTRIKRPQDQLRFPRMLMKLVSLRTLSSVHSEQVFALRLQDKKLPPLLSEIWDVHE
Outline: as §1

[3] = efficacy at max dose, in relation to reference dual agonist T0901317, read-out: LXR alpha Activity @ max dose (%)
[4] = potency (Inflection Point, IP), co-activator recruitment to LXRalpha LBD, in relation to T0901317, read-out: LXR alpha IP
[5] = efficacy at max dose, in relation to reference dual agonist T0901317, read-out: LXR beta Activity @ max dose (%)
[6] = potency (Inflection Point, IP), co-activator recruitment to LXRbeta LBD, in relation to T0901317, read-out: LXR beta IP
[7] = co-activator recruitment to GST-LXRalpha LBD, TR-FRET, read-out: LXR alpha IP (Inflection Point, potency)
[8] = efficacy in relation to reference dual agonist T0901317, read-out: LXR alpha Activity @ max dose
[9] = co-activator recruitment to GST-LXRbeta LBD, TR-FRET, read-out: LXR beta IP (Inflection Point, potency)
[10] = efficacy in relation to reference dual agonist T0901317, read-out: LXR beta Activity @ max dose
[11] = potency (Inflection Point, IP), co-activator recruitment to LXRalpha LBD, in relation to T0901317

Row | SMILES | Emax [1, 3] | pEC50 [1, 4] | Emax [2, 5] | pEC50 [2, 6] | pEC50 [1, 7] | Emax [1, 8] | pEC50 [2, 9] | Emax [2, 10] | LXR alpha IP (nM) [1, 11]
1 | Cc1cc(N2CCC(CC3CN(C(=O)[C@](O)(c4cc(F)cc(Cl)c4)C(F)(F)F)C3)CC2)ccc1C(=O)N(C)C [Example 2-81, 4-[4-({1-[(2R)-2-(3-chloro-5-fluorophenyl)-3,3,3-trifluoro-2-hydroxy-propanoyl]azetidin-3-yl}methyl)piperidin-1-yl]-N,N,2-trimethyl-benzamide] | 40% | 6.10 | 103% | 7.41 |  |  |  |  | 
2 | CN(C)C(=O)c1ccc(N2CCC(CC3CCN(C(=O)[C@](O)(c4cc(F)cc(F)c4)C(F)(F)F)CC3)CC2)cc1Cl [Example 2-94, 2-chloro-4-[4-({1-[(2R)-2-(3,5-difluoro-phenyl)-3,3,3-trifluoro-2-hydroxy-propanoyl]piperidin-4-yl}methyl)piperidin-1-yl]-N,N-dimethyl-benzamide] | 48% | 7.30 | 89% | 8.40 |  |  |  |  | 
3 | CN(C)C(=O)c1ccc(N2CCC(CC3CCN(C(=O)[C@](O)(c4cccc(C5CC5)c4)C(F)(F)F)CC3)CC2)cc1Cl [Example 2-96, 2-chloro-4-[4-({1-[(2R)-2-(3-cyclopropyl-phenyl)-3,3,3-trifluoro-2-hydroxy-propanoyl]piperidin-4-yl}methyl)piperidin-1-yl]-N,N-dimethyl-benzamide] | 20% | 7.18 | 63% | 8.40 |  |  |  |  | 
4 | CN(C)C(=O)c1ccc(N2CCC(OC3CCN(C(=O)C(O)(c4ccc(Cl)cc4)C(F)(F)F)CC3)CC2)cc1Cl (centres unmarked) [Example 2-23, 2-chloro-4-[4-({1-[2-(4-chlorophenyl)-3,3,3-trifluoro-2-hydroxy-propanoyl]piperidin-4-yl}oxy)piperidin-1-yl]-N,N-dimethyl-benzamide] | 0% |  | 51% | 6.29 |  |  |  |  | NO IP
5 | CC(C)c1cccc([C@@](O)(C(=O)N2CCC(C)(CC3CCN(c4ccc(C(=O)N(C)C)c(Cl)c4)CC3)CC2)C(F)(F)F)c1 [Example 2-56, 2-chloro-N,N-dimethyl-4-{4-[(4-methyl-1-{(2R)-3,3,3-trifluoro-2-hydroxy-2-[3-(1-methylethyl)phenyl]propanoyl}piperidin-4-yl)methyl]piperidin-1-yl}benzamide] | 2% |  | 37% | 7.74 |  |  |  |  | NO IP
6 | CN(C)C(=O)c1ccc(N2CCC(CC3CCN(C(=O)[C@](O)(c4ccccc4)C(F)(F)F)CC3)CC2)cc1Cl [Example 2-12, 2-chloro-N,N-dimethyl-4-[4-({1-[(2R)-3,3,3-trifluoro-2-hydroxy-2-phenylpropanoyl]piperidin-4-yl}methyl)piperidin-1-yl]benzamide] | 25% |  | 79% |  |  |  |  |  | 
7 | COc1cc(Cl)cc([C@@](O)(C(=O)N2CCC(CC3CCN(c4ccc(C(=O)N(C)C)c(Cl)c4)CC3)CC2)C(F)(F)F)c1 [Example 2-100, 2-chloro-4-[4-({1-[(2R)-2-(3-chloro-5-methoxy-phenyl)-3,3,3-trifluoro-2-hydroxy-propanoyl]piperidin-4-yl}methyl)piperidin-1-yl]-N,N-dimethyl-benzamide] | 0% |  | 24% | 8.22 |  |  |  |  | NO IP
8 | CN(C)C(=O)c1ccc(N2CCC(CC3CN(C(=O)[C@](O)(c4ccccc4)C(F)(F)F)C3)CC2)cc1Cl [Example 2-58, 2-chloro-N,N-dimethyl-4-[4-({1-[(2R)-3,3,3-trifluoro-2-hydroxy-2-phenylpropanoyl]azetidin-3-yl}methyl)piperidin-1-yl]benzamide] | 38% | 6.02 | 88% | 7.80 |  |  |  |  | 

Second part, the compound after the results:

Row | Emax [1, 3] | pEC50 [1, 4] | Emax [2, 5] | pEC50 [2, 6] | pEC50 [1, 7] | Emax [1, 8] | pEC50 [2, 9] | Emax [2, 10] | LXR alpha IP (nM) [1, 11] | SMILES
9 | 31% | 6.26 | 72% | 7.28 |  |  |  |  |  | O=C(c1ccc(N2CCC(CC3CCN(C(=O)[C@](O)(c4ccccc4)C(F)(F)F)CC3)CC2)cc1Cl)N1CCC1 [Example 4-1, (R)-1-(4-((1-(4-(azetidine-1-carbonyl)-3-chlorophenyl)piperidin-4-yl)methyl)piperidin-1-yl)-3,3,3-trifluoro-2-hydroxy-2-phenylpropan-1-one]
10 | 58% | 7.16 | 127% | 8.22 |  |  |  |  |  | CNC(=O)c1ccc(N2CCC(CC3CCN(C(=O)[C@](O)(c4cccc(F)c4)C(F)(F)F)CC3)CC2)nc1Cl [Example 7-152, 2-chloro-N-methyl-6-[4-({1-[(2R)-3,3,3-trifluoro-2-(3-fluorophenyl)-2-hydroxypropanoyl]piperidin-4-yl}methyl)piperidin-1-yl]pyridine-3-carboxamide]
11 | 0% | 6.96 | 73% | 8.40 |  |  |  |  |  | CN(C)C(=O)c1ccc(N2CCC(CC3CCN(C(=O)[C@](O)(c4cccc(Br)c4)C(F)(F)F)CC3)CC2)nc1Cl [Example 7-67, 6-[4-({1-[(2R)-2-(3-bromophenyl)-3,3,3-trifluoro-2-hydroxypropanoyl]piperidin-4-yl}methyl)piperidin-1-yl]-2-chloro-N,N-dimethylpyridine-3-carboxamide]
12 |  |  |  |  | 7.33 | 52% | 8.10 | 98% |  | NC(=O)c1ccc(N2CCC(CC3CCN(C(=O)C(O)(c4cc(F)cc(Cl)c4)C(F)(F)F)CC3)CC2)cc1Cl (centres unmarked) [Example 12-9, 2-chloro-4-[4-({1-[2-(3-chloro-5-fluorophenyl)-3,3,3-trifluoro-2-hydroxy-propanoyl]piperidin-4-yl}methyl)piperidin-1-yl]benzamide]
13 | 14% |  | 58% | 8.10 |  |  |  |  | NO IP | CC(C)Oc1cccc([C@@](O)(C(=O)N2CCC(CC3CCN(c4ccc(C(=O)N(C)C)c(Cl)n4)CC3)CC2)C(F)(F)F)c1 [Example 7-91, 2-chloro-N,N-dimethyl-6-{4-[(1-{(2R)-3,3,3-trifluoro-2-hydroxy-2-[3-(1-methylethoxy)phenyl]propanoyl}piperidin-4-yl)methyl]piperidin-1-yl}pyridine-3-carboxamide]
14 |  |  |  |  | 6.23 | 33% | 7.28 | 63% |  | CN(C)C(=O)c1ccc(N2CCC(CC3CCN(S(=O)(=O)c4cc(F)ccc4F)CC3)CC2)cc1Cl [Example 13-5, 2-chloro-4-[4-({1-[(2,5-difluorophenyl)-sulfonyl]piperidin-4-yl}methyl)piperidin-1-yl]-N,N-dimethylbenzamide]
15 | 0% |  | 31% | 6.72 |  |  |  |  | NO IP | COc1cccc([C@@](O)(C(=O)N2CCC(CC3CCN(c4ccc(C(=O)N(C)C)cc4)CC3)CC2)C(F)F)c1 [Example 2-130, 4-[4-({1-[(2R)-3,3-difluoro-2-hydroxy-2-(3-methoxy-phenyl)propanoyl]piperidin-4-yl}methyl)piperidin-1-yl]-N,N-dimethyl-benzamide]
16 | 36% |  | 32% | 5.33 |  |  |  |  | NO IP | CN(C)C(=O)c1cnc(N2CCC(CC3CCN(C(=O)[C@](O)(c4ccccc4)C(F)(F)F)CC3)CC2)cc1Cl [Example 7-2, 4-chloro-N,N-dimethyl-6-[4-({1-[(2R)-3,3,3-trifluoro-2-hydroxy-2-phenylpropanoyl]piperidin-4-yl}methyl)piperidin-1-yl] pyridine-3-carboxamide]
17 | 47% | 6.10 | 115% | 7.64 |  |  |  |  |  | CNC(=O)c1ccc(N2CCC(CC3CCN(C(=O)[C@](O)(c4ccccc4F)C(F)(F)F)CC3)CC2)nc1Cl [Example 7-145, 2-chloro-N-methyl-6-[4-({1-[(2R)-3,3,3-trifluoro-2-(2-fluorophenyl)-2-hydroxypropanoyl]piperidin-4-yl}methyl)piperidin-1-yl]pyridine-3-carboxamide]
18 | 14% |  | 81% | 7.89 |  |  |  |  | NO IP | CNC(=O)c1ccc(N2CCC(CC3CCN(C(=O)[C@](O)(c4cccc(OC)c4)C(F)(F)F)CC3)CC2)nc1Cl [Example 7-135, 2-chloro-N-methyl-6-[4-({1-[(2R)-3,3,3-trifluoro-2-hydroxy-2-(3-methoxyphenyl)propanoyl]piperidin-4-yl}methyl)piperidin-1-yl]pyridine-3-carboxamide]
19 | 25% | 5.49 | 102% | 6.75 |  |  |  |  |  | CNC(=O)c1ccc(N2CCC(OC3CCN(C(=O)C(O)(c4cccc(C)c4)C(F)(F)F)CC3)CC2)cc1Cl (centres unmarked) [Example 7-29, 2-chloro-N-methyl-4-[4-({1-[3,3,3-trifluoro-2-hydroxy-2-(3-methylphenyl)propanoyl]piperidin-4-yl}oxy)piperidin-1-yl]benzamide]
